Test [1] relates to Mus musculus. The experiment in a line: Induction of hypertension in C57B1/6 mouse assessed as increase in systolic pressure at 10 mg/kg/day dosed via osmotic mini pumps for 14 days. Type of test: functional, organism-based.
Test [2] addresses T1, NADH-cytochrome b5 reductase 3 (Rattus norvegicus) (UniProt P20070).
T1 sequence (whole entry): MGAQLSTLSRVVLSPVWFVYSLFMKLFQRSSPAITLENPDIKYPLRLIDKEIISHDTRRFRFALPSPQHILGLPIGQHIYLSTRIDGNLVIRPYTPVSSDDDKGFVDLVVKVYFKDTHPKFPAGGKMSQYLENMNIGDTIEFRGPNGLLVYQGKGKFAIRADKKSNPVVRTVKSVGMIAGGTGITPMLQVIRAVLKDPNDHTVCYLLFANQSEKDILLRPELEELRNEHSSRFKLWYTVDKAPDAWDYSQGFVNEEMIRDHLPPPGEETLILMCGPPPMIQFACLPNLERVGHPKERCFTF
The experiment in a line: Inhibition of Cyb5R3 in rat thoracodorsal arteries assessed as inhibition of DETA NONOate-induced response incubated for 24 hrs in presence of sGC activator Bay 58-2667 by pressure myography.

For test [3], the target named is T1, NADH-cytochrome b5 reductase 3 (Rattus norvegicus). As to the kind of experiment: Inhibition of Cyb5R3 in rat aortic VSMs assessed as reduction in decrease in sGC protein by Western blot analysis. Particulars: concentration not given here.
The target is the same in test [4]. The experiment in a line: Inhibition of Cyb5R3 in DETA NONOate-stimulated rat aortic VSMs assessed as reduction in NO-induced cGMP production in presence of sGC activator Bay 58-2667.
Test [5] has the same target. As to the kind of experiment: Inhibition of Cyb5R3 in rat aortic VSMs assessed as reduction in decrease in basal cGMP levels.
For test [6] the target is unchanged. The experiment in a line: Inhibition of Cyb5R3 in rat thoracodorsal arteries assessed as inhibition of DETA NONOate-induced response incubated for 24 hrs by pressure myography.
Test [7] has as its system Mus musculus. As to the kind of experiment: Induction of hypertension in C57B1/6 mouse assessed as increase in mean arterial pressure at 10 mg/kg/day dosed via osmotic mini pumps for 14 days. Format: functional, organism-based.
Test [8] concerns Mus musculus. The experiment in a line: Induction of hypertension in C57B1/6 mouse assessed as increase in diastolic pressure at 10 mg/kg/day dosed via osmotic mini pumps for 14 days. Format: functional, organism-based.
For a further test, the species on record is Homo sapiens. As to the kind of experiment: Reduction in systolic blood pressure in patient with acute decompensated heart failure during phase II clinical trial. Type of test: functional.
The target in test [9] is T2, NADH-cytochrome b5 reductase (Homo sapiens) (UniProt P00387).
T2 sequence (whole entry): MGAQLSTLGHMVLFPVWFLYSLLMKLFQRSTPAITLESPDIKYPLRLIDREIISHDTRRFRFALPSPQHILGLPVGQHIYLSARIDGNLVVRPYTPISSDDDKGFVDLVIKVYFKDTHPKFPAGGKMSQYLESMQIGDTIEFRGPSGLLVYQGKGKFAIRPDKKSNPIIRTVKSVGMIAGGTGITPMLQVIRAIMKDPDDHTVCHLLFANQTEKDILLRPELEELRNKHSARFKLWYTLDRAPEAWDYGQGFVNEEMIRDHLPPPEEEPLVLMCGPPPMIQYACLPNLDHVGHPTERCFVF
As to the kind of experiment: Inhibition of Cyb5R3 (unknown origin) expressed in HEK293 cells at 21.86 uM incubated for 24 hrs in presence of potassium ferricyanide and NADH by spectrophotometric assay. Format: cell-based.

The record followed here is ChEMBL document CHEMBL4482319, “Targeting cyb5r3” (2016).

SMILES strings stand for the structures. Activity calls are given as the source filed them. The rule behind the calls is not given here. A value given as a limit tells only on which side of the number the result lay.

Take `O=c1cc(CS[C@@H]2Nc3ccccc3O2)[nH]c(=S)[nH]1`: the outcome with Mus musculus [1], with Mus musculus [7] and with Mus musculus [8] was Active. Further, the inhibition entry in [2] and in [4] was “inactive” throughout. Besides, the inhibition in [3] was below 75%. The inhibition result in test [5] and in test [6] was “Active” throughout.

In the test listed under Homo sapiens, `O=C(O)CCCCN(CCc1ccccc1OCc1ccc(CCc2ccccc2)cc1)Cc1ccc(C(=O)O)cc1` displayed an Activity of 16.6 mmHg.

On to `Oc1cc(CSc2ccccc2)nc(S)n1`, for which the inhibition in test [9] is above 80%.

As a reminder, the inhibition is the change of the read-out against control, counted positive when it falls.
